# Source: publication PMC12040169 (PLOS Biology, 2025)
# Experiment: in vitro
# Details: human, hela cells, % viability
row,SMILES,"viability at 28.5 h, 10 µM"
1,O=C(CCc1nc(O)c2c3c(sc2n1)CCCC3)NCC(=O)Nc1ccccc1Br [CBK295348],101%
2,Nc1ncccc1C(=O)OCc1ccc(-c2ccccc2)cc1 [CBK295353],94.2%
3,COC(=O)C1=C(C)N(c2ccc(C(=O)O)cc2)C(=O)NC1c1cccc(OC)c1OC (stereo not shown) [CBK295355],112%
4,CCCCn1c(SCc2nc(-c3cccc(Cl)c3)no2)n[nH]c1=O [CBK295356],116%
5,C=CCn1c(Cc2csc(NC(=O)c3cc(C)cc(C)c3)n2)n[nH]c1=S [CBK295358],77%
6,C=CCn1c(Cc2csc(NC(=O)Cc3ccc(Cl)cc3)n2)n[nH]c1=S [CBK295359],96.3%
7,Cc1noc(C)c1C(=O)N(C)CC(=O)Nc1ccc(Cl)c(C(F)(F)F)c1 [CBK295363],95.7%
8,Nc1ncnc2sc3c(c12)CCN(C(=O)c1ccc2nccnc2c1)C3 [CBK295588],102%
9,Cc1cc(-n2c(C)cc(C(=O)CSc3n[nH]c(=O)n3CC3CCCO3)c2C)no1 (stereo not shown) [CBK295589],112%
10,CN(C(=O)COC(=O)c1cc(-c2ccco2)nc2ccccc12)C1(C#N)CCCCC1 [CBK295591],93.2%
11,O=c1[nH]nc(SCCCOc2ccc(Cl)cc2)n1C1CC1 [CBK295597],115%
12,Cc1cccc(OCCNC(=O)CSc2n[nH]c(=O)n2C2CC2)c1 [CBK295599],94.2%
13,O=C(CNC(=O)C1CC=CCC1C(=O)O)Nc1ccc(N2CCCCCC2)cc1 (stereo not shown) [CBK295603],90.8%
14,Cc1c(C=Cc2cc(C(=O)O)c3ccccc3n2)cc(C#N)n1C [CBK295604],104%
15,O=C(Nc1ccnn1Cc1cccs1)c1cc(=O)[nH]c2ccccc12 [CBK295606],102%
16,Cc1cc(C(=O)Nc2nnc(Cc3ccccc3)s2)c2ccccc2n1 [CBK295607],93.3%
17,COc1ccc(N)cc1OCc1cn2ccccc2n1 [CBK295609],57.2%
18,Cc1c(C(=O)O)sc2nc(C=Cc3cc([N+](=O)[O-])ccc3Cl)[nH]c(=O)c12 [CBK295613],121%
19,COc1ccc(C(=O)C=c2[nH]c(=O)c(=Cc3ccc(C(=O)O)cc3)s2)cc1 [CBK295614],99.6%
20,CCCn1c(SCC(=O)Nc2scc(CC(C)C)c2C(=O)OCC)n[nH]c1=O [CBK295615],98.1%
21,O=C(O)CCc1ccc(S(=O)(=O)Nc2ccccc2Cc2ccccc2)cc1 [CBK295616],99.6%

row,SMILES,"viability at 28.5 h, 10 µM"
1,Cc1nc2ccc(C(=O)c3ccccc3O)cn2c(=O)c1CCC(=O)O [CBK295618],94.5%
2,Cc1c(C(=O)O)sc2nc3c(Cl)cc(C(=O)c4ccccc4O)cn3c(=O)c12 [CBK295619],98.5%
3,O=C(CSc1n[nH]c(=O)n1C1CC1)NCCCSc1ccccc1 [CBK295620],104%
4,O=C(c1ccc(OC(F)F)cc1)N1CCCc2cc(S(=O)(=O)N3CCCCC3)ccc21 [CBK295621],118%
5,CCCn1c(NC(=O)C2CCCN2S(=O)(=O)CC)nc2ccccc21 (stereo not shown) [CBK295624],96.8%
6,O=C(O)c1ccc2c(c1)CCN2S(=O)(=O)c1ccc(S(=O)(=O)N2CCOCC2)cc1 [CBK295625],97.1%
7,Cc1cccc(C=C(Cl)c2nc3sc(C(=O)O)c(C)c3c(=O)[nH]2)c1 [CBK295626],91.6%
8,Cc1nc2ccccc2c(C)c1C(=O)OCc1nc(N)nc(N(C)C)n1 [CBK295627],70.6%
9,CCCCCC(=O)Nc1ccc(C(=O)Cn2nc(C(=O)O)c3ccccc3c2=O)cc1 [CBK295628],104%
10,CCCc1ccc(S(=O)(=O)N2CCN(CC(=O)Nc3cc(C(C)C)no3)CC2)cc1 [CBK295629],114%
11,COc1ccc(-c2n[nH]c(=S)n2CCC(=O)NCCc2cc(C)n(-c3ccccc3)c2C)cc1 [CBK295632],97.6%
12,Cc1ccc(C(N)=O)c(OCC(=O)N2c3ccccc3CCC2C)c1 (stereo not shown) [CBK295633],93.8%
13,CC1Oc2ccccc2OC1C(=O)Nc1nnc(Cc2ccccc2)s1 (stereo not shown) [CBK295634],90.5%
14,CC(C)Cn1c(-c2ccc(F)cc2)cnc1SC(C)C(=O)NC(N)=O (stereo not shown) [CBK295635],91.9%
15,COc1ccc(Oc2ccc(C=Cc3nc4sc(C(=O)O)c(C)c4c(=O)[nH]3)cc2[N+](=O)[O-])cc1 [CBK295637],112%
16,Cc1ccc(C=C(c2ccccc2)c2nc3sc(C(=O)O)c(C)c3c(=O)[nH]2)s1 [CBK295638],100%
17,CC(C)(C)NC(=O)CN1CCN(C(=O)CSc2n[nH]c(=O)n2C2CC2)CC1 [CBK295641],94.5%
18,O=c1c2ccsc2ncn1Cc1nnc(-c2ccc(Br)o2)o1 [CBK295642],88.7%
19,Cc1cc(C(=O)COc2cccc(-n3cnnn3)c2)c(C)n1C(C)c1ccccc1 (stereo not shown) [CBK295643],70.2%
20,Cc1ccc(S(=O)(=O)N2CCC(C(=O)NC3(C(=O)O)CCCCC3)CC2)cc1 [CBK295644],109%
21,Oc1ccc(CN2CCN(Cc3ccc(Br)s3)CC2)c2cccnc12 [CBK295645],89.5%

row,SMILES,"viability at 28.5 h, 10 µM"
1,COc1ccc(S(=O)(=O)N2CCC(C(=O)NC3(C(=O)O)CCCCC3)CC2)cc1OC [CBK295646],95.5%
2,O=C(O)CCc1ccc(S(=O)(=O)Nc2ccc(N3CCCC3=O)cc2)cc1 [CBK295647],106%
3,CCCn1c(SCC(=O)Nc2cc(C(C)(C)C)no2)n[nH]c1=O [CBK295648],104%
4,CC(C)CCC(C)NC(=O)c1ccc(Oc2ccc(F)cc2)cc1 (stereo not shown) [CBK295650],88.3%
5,Cc1c(-n2nnnc2SC(C)c2ccccc2)c(=O)n(-c2ccccc2)n1C (stereo not shown) [CBK295651],92.9%
6,CCC(C)NC(=O)c1ccccc1NS(=O)(=O)c1cc(C(=O)O)cs1 (stereo not shown) [CBK295652],108%
7,CC(C)(C)C(=O)NCc1ccc(C(=O)CSc2n[nH]c(=O)n2C2CC2)s1 [CBK295653],111%
8,O=C1NC(=O)C(CC(=O)N2CCN(Cc3nc4ccccc4s3)CC2)S1 (stereo not shown) [CBK295654],98.3%
9,O=C(O)c1csc(S(=O)(=O)Nc2ccccc2C(=O)Nc2ccc3c(c2)OCO3)c1 [CBK295655],102%
10,CCc1ccc(-c2noc(CSc3n[nH]c(=O)n3CCCOC)n2)cc1 [CBK295656],95.1%
11,O=C(c1ccc(Cl)cc1)c1ccc(OCC(=O)N2CCN(C(=O)c3ccco3)CC2)cc1 [CBK295658],89.2%
12,O=C(CSc1nnnn1-c1ccc(O)cc1)NC1CCCC1 [CBK295659],90.6%
13,CC(NC(=O)c1cn(-c2ccccc2)nc1-c1cccnc1)c1ccccn1 (stereo not shown) [CBK295660],105%
14,Cc1cc(C(=O)CN(C)S(=O)(=O)c2ccc(Cl)c(Cl)c2)c(C)n1C [CBK295661],102%
15,O=C(Nc1ccccc1C(=O)N1CCCC1)c1cc(=O)[nH]c2ccccc12 [CBK295664],99.2%
16,CCOc1ccc(NC(=O)C2CCC(C)(C(=O)O)C2(C)C)cc1 (stereo not shown) [CBK295665],106%
17,Cc1ccc(-c2n[nH]c(=S)n2CCC(=O)NC(C)c2ccc3c(c2)CCCC3)cc1 (stereo not shown) [CBK295666],90.1%
18,CN(C)c1ccc(C=C2CCCC3C2=NN(C(=O)CCC(=O)O)C3c2ccc(N(C)C)cc2)cc1 (stereo not shown) [CBK296065],86.8%
19,O=C(Cn1nnc2ccccc21)Nc1ccc(Cl)cn1 [CBK296068],97.9%
20,COc1ccc(C=C2CCCC3C2=NN(C(=O)CCC(=O)O)C3c2ccc(OC)c(OC)c2)cc1OC (stereo not shown) [CBK296070],107%
21,O=C(O)c1ccc(Nc2nc3ccccc3nc2NS(=O)(=O)c2ccc(Cl)cc2)cc1 [CBK296072],98.5%

row,SMILES,"viability at 28.5 h, 10 µM"
1,O=C(O)CN1C(=O)C(=Cc2ccc(-c3ccc(Br)cc3)o2)SC1=S [CBK296075],92.2%
2,COc1ccc(-c2csc(NC(=O)c3ccccc3-c3ccccc3C(=O)O)n2)cc1 [CBK296076],88.6%
3,O=C(O)c1cc(NS(=O)(=O)c2ccc([N+](=O)[O-])cc2)ccc1O [CBK296077],110%
4,Cc1ccc(S(=O)(=O)NC(=O)NCCCCNC(=O)NS(=O)(=O)c2ccc(C)cc2)cc1 [CBK296078],102%
5,O=C(O)Cc1csc(NC(=O)c2ccc(N3CCCCC3)c([N+](=O)[O-])c2)n1 [CBK296081],84.7%
6,Cc1cc(NC(c2cccc([N+](=O)[O-])c2)c2ccc3cccnc3c2O)no1 (stereo not shown) [CBK296083],89.1%
7,O=C(O)C=Cc1cn(-c2ccccc2)nc1-c1ccc(-c2ccc([N+](=O)[O-])cc2)o1 [CBK296088],105%
8,CCC(C)C(NC(=O)c1ccccc1NC(=O)c1ccc(OC)cc1)C(=O)O (stereo not shown) [CBK296090],91.4%
9,CN(C)c1ccc(C=Nc2ccc(NC(=O)CCC(=O)O)cc2)cc1 [CBK296091],92%
10,COc1ccc2cc(-c3cc(C(=O)O)c4ccccc4n3)ccc2c1 [CBK296093],88.4%
11,O=C(O)c1ccc(N2C(=O)C(=Cc3c4ccccc4cc4ccccc34)SC2=S)cc1 [CBK296101],85.9%
12,Cc1ccc(S(=O)(=O)NC(=O)Nc2cccc(NC(=O)NS(=O)(=O)c3ccc(C)cc3)n2)cc1 [CBK296102],103%
13,CCOc1cc(N2CCOCC2)c(OCC)cc1NC(=O)CSc1ccccc1C(=O)O [CBK296107],97.1%
14,Cc1noc(NS(=O)(=O)c2ccc(NC(=O)c3cc(-c4ccccc4Cl)nc4ccccc34)cc2)c1C [CBK296108],80.6%
15,Cc1ccc(C2=NN(c3ccccc3)C(c3cn(CCC(=O)O)nc3-c3ccccc3)C2)cc1 (stereo not shown) [CBK296110],107%
16,CCCCc1ccc(NS(=O)(=O)c2ccc(C)c(C(=O)O)c2)cc1 [CBK296111],116%
17,COc1ccc(-c2nn(-c3ccccc3)cc2C(=O)Nc2ccc(C(=O)O)cc2)cc1OC [CBK296112],95%
18,COc1ccc(-c2cc(C(=O)OCc3ccccn3)c3ccccc3n2)cc1 [CBK296114],108%

# Same assay, conditions: human, hela cells, % viability, bulk resorufin, single well
row,SMILES,"viability at 28.5 h, 10 µM"
1,O=C(O)C=CC(=O)Nc1ccc(SC(F)(F)C(F)(F)C(F)(F)F)cc1 [CBK296104],107%
